Data published in article PMC9226319, “Peripherally restricted transthyretin-based delivery system for probes and therapeutics avoiding opioid-related side effects” (Nature Communications, 2022).
Values joined by “and” are separate entries in the source; they are usually repeats but may differ in a detail not shown here. Equal entries are not always repeated. Where two headings read alike, the source gives them in different places. Values belong to the molecule of their own block, whether it stands above or below them.

How the values were obtained:
[1] = molecular target: T1, kappa opioid receptor (rat) (Rattus norvegicus, UniProt P34975); assay: Rat kappa-opioid receptor (agonist radioligand [3H] U 69593) binding assay; details: for % Inhibition of Control Specific Binding: kappa-opioid receptor binding, replicates 1st/2nd
T1 construct: Eurofins Cerep (France)
T1 sequence (P34975 whole entry): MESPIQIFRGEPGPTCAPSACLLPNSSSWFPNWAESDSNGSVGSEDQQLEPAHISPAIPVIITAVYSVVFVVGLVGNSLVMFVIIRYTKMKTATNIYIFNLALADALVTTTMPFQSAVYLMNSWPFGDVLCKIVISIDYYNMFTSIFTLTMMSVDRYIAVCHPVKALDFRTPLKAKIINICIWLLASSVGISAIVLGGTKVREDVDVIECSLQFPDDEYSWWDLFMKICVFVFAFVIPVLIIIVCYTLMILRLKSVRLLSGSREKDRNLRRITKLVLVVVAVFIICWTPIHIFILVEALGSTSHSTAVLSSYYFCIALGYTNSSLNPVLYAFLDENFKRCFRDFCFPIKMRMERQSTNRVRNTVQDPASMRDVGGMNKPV

[2] = in vivo; details: male, Sprague Dawley, rat, sc
[3] = molecular target: TTR in human serum (Homo sapiens, UniProt P02766); assay: TTR serum fluorescent probe exclusion (FPE) selectivity assay; format: binding; details: ligand 10 µM; for %FPE probe fluorescence: human serum, replicates
[4] = in vivo; details: male, Sprague Dawley, rat, sc; remark: listed apart in the source
[5] = tested on: male Sprague-Dawley rats; assay: Gastrointestinal (GI) transit (charcoal meal) assays; format: in vivo, rat; details: rat, in vivo
[6] = tested on: male Sprague-Dawley rats; details: rat, in vivo
[7] = molecular target: purified human TTR (Homo sapiens, UniProt P02766); assay: Fluorescence polarization (FP) binding assay, ligands to TTR in buffer
[8] = molecular target: human mu-opioid receptors (Homo sapiens, UniProt P35372); assay: biochemical; format: binding; details: binding affinity to mu-opioid receptor (Ki)
Sequence of human mu-opioid receptors (P35372 whole entry): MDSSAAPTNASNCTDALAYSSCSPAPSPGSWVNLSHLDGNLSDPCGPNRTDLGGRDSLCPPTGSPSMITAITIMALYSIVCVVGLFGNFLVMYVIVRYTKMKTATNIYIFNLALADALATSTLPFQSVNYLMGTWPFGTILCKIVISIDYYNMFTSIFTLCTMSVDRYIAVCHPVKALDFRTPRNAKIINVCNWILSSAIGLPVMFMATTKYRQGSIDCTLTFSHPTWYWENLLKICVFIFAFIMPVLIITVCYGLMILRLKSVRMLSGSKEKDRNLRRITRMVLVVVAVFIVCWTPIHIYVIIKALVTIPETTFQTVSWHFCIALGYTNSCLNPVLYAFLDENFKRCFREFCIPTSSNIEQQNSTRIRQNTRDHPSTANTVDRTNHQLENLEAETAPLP

[9] = molecular target: T2, delta-opioid receptor (human) (Homo sapiens, UniProt P41143); assay: Human delta-opioid receptor (agonist radioligand [3H]-DADLE) binding assay; details: for % Inhibition of Control Specific Binding: delta-opioid receptor binding, replicates 1st/2nd
T2 construct: Eurofins Cerep (France)
T2 sequence (P41143 whole entry): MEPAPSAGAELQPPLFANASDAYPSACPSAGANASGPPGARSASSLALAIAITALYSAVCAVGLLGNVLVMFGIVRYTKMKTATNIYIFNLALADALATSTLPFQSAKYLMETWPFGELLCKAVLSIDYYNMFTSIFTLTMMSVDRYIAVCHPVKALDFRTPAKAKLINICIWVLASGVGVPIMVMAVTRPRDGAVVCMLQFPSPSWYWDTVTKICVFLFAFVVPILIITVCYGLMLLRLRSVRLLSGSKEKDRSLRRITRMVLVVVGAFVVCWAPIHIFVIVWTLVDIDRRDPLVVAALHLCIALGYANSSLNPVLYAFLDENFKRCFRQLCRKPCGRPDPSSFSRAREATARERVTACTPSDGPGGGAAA

[10] = for Concentration: subcutaneous 15.9 μmole/kg, individual animals
[11] = molecular target: holo-RBP-TTR interaction (Homo sapiens, UniProt P02766); assay: Effect on holo-RBP-TTR interaction in human serum (cross-linking, Western blot); details: human serum, quantified from gel image, replicates (Supp Fig.14b)

Structure (SMILES): COc1ccc2c3c1O[C@H]1[C@@H](OCc4cn(CCNCCCCCCOc5cc(OCCCc6c(C)n[nH]c6C)cc(C(=O)O)c5)nn4)CC[C@@]4(O)[C@@H](C2)N(C)CC[C@]314 [AG10-L2-Oxy]
Ki ([1]; [3H] U 69593 displacement, read-out: binding affinity to kappa-opioid receptor (Ki)): 120 nM | % Inhibition of Control Specific Binding ([1]; 1.0E-06 M): 78.6% and 74.5% | % Inhibition of Control Specific Binding ([1]; 1.0E-07 M): 32.2% and 33.7% | % Inhibition of Control Specific Binding ([1]; 1.0E-08 M): 1.0% and 5.5% | % Inhibition of Control Specific Binding ([1]; 1.0E-09 M): -3.9% and 9.9% | % Inhibition of Control Specific Binding ([1]; 2.0E-06 M): 85.0% and 84.1% | concentration at 0.03 h ([2]; 15.9 μmole/kg, Concentration, subcutaneous 15.9 μmole/kg, time 0.03 h, individual animals): 1340 nM | concentration at 0.5 h ([2]; 15.9 μmole/kg, Concentration, subcutaneous 15.9 μmole/kg, time 0.5 h, individual animals): 4740 nM | concentration at 0.75 h ([2]; 15.9 μmole/kg, Concentration, subcutaneous 15.9 μmole/kg, time 0.75 h, individual animals): 4800 nM | concentration at 1 h ([2]; 15.9 μmole/kg, Concentration, subcutaneous 15.9 μmole/kg, time 1 h, individual animals): 6680 nM | concentration at 2 h ([2]; 15.9 μmole/kg, Concentration, subcutaneous 15.9 μmole/kg, time 2 h, individual animals): 7090 nM | concentration at 4 h ([2]; 15.9 μmole/kg, Concentration, subcutaneous 15.9 μmole/kg, time 4 h, individual animals): 2750 nM | concentration at 8 h ([2]; 15.9 μmole/kg, Concentration, subcutaneous 15.9 μmole/kg, time 8 h, individual animals): 196 nM | concentration at 24 h ([2]; 15.9 μmole/kg, Concentration, subcutaneous 15.9 μmole/kg, time 24 h, individual animals): 18.7 nM | AUC(0-inf) ([2]; 16 umol/kg): 25.8 ± 3.09 µM·h | CL/F ([2]; 16 umol/kg): 10.3 mL/min/kg | Vd/F ([2]; 16 umol/kg): 4.22 ± 0.86 L/kg | half-life ([2]; 16 umol/kg): 4.68 ± 0.52 h | % TTR occupancy in human serum ([3]; FPE probe 3.6 µM, 3 h reading relative to probe alone, text mean ± s.d., table replicates): 66.15% and 66.78% and 69.04% and 66.00% | %FPE probe fluorescence ([3]; time 0.000 h): 0.000% | %FPE probe fluorescence ([3]; time 0.083 h): 0.549% and 0.762% and -1.844% and -1.645% | %FPE probe fluorescence ([3]; time 0.250 h): 0.706% and 1.255% and -0.116% and -0.642% | %FPE probe fluorescence ([3]; time 0.500 h): 2.826% and 3.272% and 3.466% and 3.115% | %FPE probe fluorescence ([3]; time 1.000 h): 4.537% and 7.078% and 8.406% and 7.892% | %FPE probe fluorescence ([3]; time 1.250 h): 9.016% and 10.868% and 10.718% and 11.974% | %FPE probe fluorescence ([3]; time 1.500 h): 11.997% and 15.126% and 11.024% and 13.206% | %FPE probe fluorescence ([3]; time 1.750 h): 15.076% and 17.659% and 14.693% and 18.815% | %FPE probe fluorescence ([3]; time 2.000 h): 19.358% and 21.045% and 18.427% and 21.877% | %FPE probe fluorescence ([3]; time 2.250 h): 25.163% and 23.487% and 22.045% and 24.539% | %FPE probe fluorescence ([3]; time 2.500 h): 25.806% and 27.529% and 26.249% and 27.302% | %FPE probe fluorescence ([3]; time 2.750 h): 30.929% and 30.377% and 27.371% and 30.854% | %FPE probe fluorescence ([3]; time 3.000 h): 33.853% and 33.219% and 30.957% and 33.996% | %FPE probe fluorescence ([3]; time 3.500 h): 39.372% and 39.356% and 37.472% and 40.606% | %FPE probe fluorescence ([3]; time 3.750 h): 41.871% and 41.320% and 39.536% and 41.800% | %FPE probe fluorescence ([3]; time 4.000 h): 43.406% and 44.388% and 42.775% and 45.047% | %FPE probe fluorescence ([3]; time 4.250 h): 46.096% and 46.093% and 44.165% and 46.692% | %FPE probe fluorescence ([3]; time 4.500 h): 48.403% and 48.011% and 46.251% and 48.352% | %FPE probe fluorescence ([3]; time 4.750 h): 49.977% and 52.633% and 49.006% and 51.062% | %FPE probe fluorescence ([3]; time 5.000 h): 52.730% and 52.156% and 49.883% and 52.401% | %FPE probe fluorescence ([3]; time 5.250 h): 54.499% and 55.931% and 51.647% and 54.573% | %FPE probe fluorescence ([3]; time 5.500 h): 56.002% and 55.963% and 54.625% and 55.846% | %FPE probe fluorescence ([3]; time 5.750 h): 57.400% and 57.044% and 54.205% and 59.081% | %FPE probe fluorescence ([3]; time 6.000 h): 57.353% and 57.260% and 55.092% and 59.796% | Kp ([4]; percentage CSF to plasma ratio): 0 | Kp ([4]; percentage brain to plasma ratio): 0 | GI transit (% of vehicle) [5]: 9.5 ± 2.8% | GI transit as % of vehicle group [5]: 9.19% and 12.07% and 6.37% and 7.14% and 12.52% | GI transit (% of vehicle) ([5]; sc): 89.5 ± 3.0% | GI transit as % of vehicle group ([5]; sc): 86.23% and 92.53% and 87.21% and 92.83% and 88.77% | hot plate latency [6]: 54.2 ± 4.8 s | hot plate latency ([6]; sc): 9.5 ± 0.8 s | % Fluorescence polarization (mean) ([7]; log [nM] inhibitor 0.990): 100.000% | % Fluorescence polarization (mean) ([7]; log [nM] inhibitor 1.291): 102.820% | % Fluorescence polarization (mean) ([7]; log [nM] inhibitor 1.592): 102.360% | % Fluorescence polarization (mean) ([7]; log [nM] inhibitor 1.893): 99.420% | % Fluorescence polarization (mean) ([7]; log [nM] inhibitor 2.194): 100.060% | % Fluorescence polarization (mean) ([7]; log [nM] inhibitor 2.495): 94.250% | % Fluorescence polarization (mean) ([7]; log [nM] inhibitor 2.796): 77.990% | % Fluorescence polarization (mean) ([7]; log [nM] inhibitor 3.097): 63.730% | % Fluorescence polarization (mean) ([7]; log [nM] inhibitor 3.398): 48.160% | % Fluorescence polarization (mean) ([7]; log [nM] inhibitor 3.699): 35.010% | % Fluorescence polarization (mean) ([7]; log [nM] inhibitor 4.000): 21.890% | % Fluorescence polarization (mean) ([7]; log [nM] inhibitor […]): 0.000% | Ki [8]: 13 nM | Ki ([9]; [3H]-DADLE displacement, read-out: binding affinity to delta-opioid receptor (Ki)): 410 nM | % Inhibition of Control Specific Binding ([9]; 1.0E-06 M): 50.5% and 49.9% | % Inhibition of Control Specific Binding ([9]; 1.0E-07 M): 14.8% and 19.2% | % Inhibition of Control Specific Binding ([9]; 1.0E-08 M): 1.2% and -2.9% | % Inhibition of Control Specific Binding ([9]; 1.0E-09 M): -6.1% and -3.7% | % Inhibition of Control Specific Binding ([9]; 2.0E-06 M): 65.5% and 63.4% | k ([10]; rat, single SC dose 16 µmol/kg): 0.15 ± 0.02 h⁻¹ | Concentration ([10]; time 0.03 h): 1980.92 nM and 1419.06 nM and 1694.61 nM | Concentration ([10]; time 0.5 h): 6994.54 nM and 3873.66 nM and 4264.25 nM | Concentration ([10]; time 0.75 h): 6976.39 nM and 5017.1 nM and 7890.95 nM | Concentration ([10]; time 1 h): 6606.43 nM and 5966.57 nM and 8438.91 nM | Concentration ([10]; time 2 h): 5069.67 nM and 5721.19 nM and 8480.16 nM | Concentration ([10]; time 4 h): 2353.83 nM and 3068.56 nM and 2535.48 nM | Concentration ([10]; time 6 h): 732.498 nM and 360.453 nM and 640.073 nM and 668.521 nM | Concentration ([10]; time 8 h): 132.069 nM and 207.97 nM and 223.861 nM | Concentration ([10]; time 12 h): 78.9419 nM and 35.0657 nM and 62.9969 nM and 75.6407 nM | Concentration ([10]; time 24 h): 12.92 nM and 13.41 nM and 14.17 nM

%holo RBP binding to TTR [11]: 7.1% and 6.9% and 6%
Structure (SMILES): NC(Cc1cc(I)c(Oc2cc(I)c(O)c(I)c2)c(I)c1)C(=O)O (centres unmarked) [Thyroxine]

Structure (SMILES): NC(N)=O [Urea]
%holo RBP binding to TTR [11]: 98.7% and 127% and 74.3%
